Here are results for three compounds from US11931328B2, “Stabilized formulations of 4-amino-3-substituted butanoic acid derivatives” (AMNEAL PHARMACEUTICALS LLC, priority 2019, dated 2024).

The data set in a line: Accelerated stability studies of API/stabilizer preparations (lactam impurity A by HPLC). The format is physicochemical.

“Also recorded” adds a separate entry of the source. Read-outs that look alike come from different tables or passages of the source.

As for `NCC(CC(=O)O)c1ccc(Cl)cc1` (stereo not drawn) [baclofen, 4-amino-3-(4-chlorophenyl)butanoic acid], for the setting “with EUDRAGIT E PO 1, 5, 10% (m/m), stored at 60° C. in closed glass vials, HPLC”, the “effect of EUDRAGIT E on formation of lactam impurity A” value (shortened to “effect of EUDRAGIT E”) is “stabilized; also recorded: stabilization effect”.
`NCC1(CC(=O)O)CCCCC1` [gabapentin]: the “effect of EUDRAGIT E” value was “destabilization effect”.
Turning to `CC(C)C[C@H](CN)CC(=O)O` [pregabalin], the “effect of EUDRAGIT E” value is given as “destabilization effect”.
